Measured values taken from the Kinase Knowledgebase extract (Sharma et al. 2016).

Molecular target: MAPK14 (human) (UniProt Q16539)
Test: Inhibtion of MAPK14 Kinase Activity

MAPK14 (human), sequence (Q16539 whole entry, looked up): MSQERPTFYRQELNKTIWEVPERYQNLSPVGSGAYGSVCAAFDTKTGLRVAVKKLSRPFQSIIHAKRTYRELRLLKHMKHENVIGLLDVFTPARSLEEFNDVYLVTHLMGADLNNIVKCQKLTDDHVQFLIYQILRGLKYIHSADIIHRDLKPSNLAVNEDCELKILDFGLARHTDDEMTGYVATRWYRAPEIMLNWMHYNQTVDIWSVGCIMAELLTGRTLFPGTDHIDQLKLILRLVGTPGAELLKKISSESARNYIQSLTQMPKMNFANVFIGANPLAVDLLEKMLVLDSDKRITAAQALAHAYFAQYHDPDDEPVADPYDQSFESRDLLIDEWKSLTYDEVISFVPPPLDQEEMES

SMILES | IC50 [nM]
Cc1cc(C(=O)c2ccc(=O)n(-c3ccc(OCCCN[C@@H](Cc4ccccc4)C(=O)O)cc3)c2N)ccc1F | < 100
Nc1c(C(=O)c2ccc(F)cc2F)ccc(=O)n1-c1c(F)cc(OCCCN[C@H](C(=O)OC2CC3CCC2C3)c2ccccc2)cc1F (stereo partly drawn) | < 100
CC(C)C[C@H](NCCCOc1ccc(-n2c(N)c(C(=O)c3ccc(F)cc3F)ccc2=O)cc1)C(=O)OC(C)(C)C | < 100
CC(C)C[C@H](NCc1cc(F)c(-n2c(N)c(C(=O)c3ccc(F)cc3F)ccc2=O)c(F)c1)C(=O)OC1CCCC1 | < 100
Nc1c(C(=O)c2ccc(F)cc2)ccc(=O)n1-c1c(F)cc(OCCCN[C@@H](Cc2ccccc2)C(=O)OC2CCCC2)cc1F | < 100
CC(C)C[C@H](NCCCOc1cc(F)c(-n2c(N)c(C(=O)c3ccc(F)cc3F)ccc2=O)c(F)c1)C(=O)OC1CCCC1 | < 100
Nc1c(C(=O)c2ccc(F)cc2F)ccc(=O)n1-c1c(F)cc(OCCCN[C@H](C(=O)O)C2CCCCC2)cc1F | < 100
Nc1c(C(=O)c2ccc(F)cc2F)ccc(=O)n1-c1ccc(CN[C@@H](Cc2ccccc2)C(=O)O)cc1 | < 100
Nc1c(C(=O)c2ccc(F)cc2)ccc(=O)n1-c1c(F)cc(OC2CCC(N[C@@H](Cc3ccccc3)C(=O)OC3CCCC3)CC2)cc1F (stereo partly drawn) | < 100
Nc1c(C(=O)c2ccc(F)cc2)ccc(=O)n1-c1c(F)cc(CN[C@@H](Cc2ccccc2)C(=O)OC2CCCC2)cc1F | < 100
CC(C)C[C@H](NCCCCCOc1cc(F)c(-n2c(N)c(C(=O)c3ccc(F)cc3F)ccc2=O)c(F)c1)C(=O)O | < 100
CC(C)C[C@H](NC1CCC(Oc2cc(F)c(-n3c(N)c(C(=O)c4ccc(F)cc4)ccc3=O)c(F)c2)CC1)C(=O)OC1CCCC1 (stereo partly drawn) | < 100
CCOC(=O)[C@H](CC(C)C)NCCCOc1cc(F)c(-n2c(N)c(C(=O)c3ccc(F)cc3)ccc2=O)c(F)c1 | < 100
CC(C)(C)OC(=O)[C@@H](NCCCOc1cc(F)c(-n2c(N)c(C(=O)c3ccc(F)cc3)ccc2=O)c(F)c1)c1ccccc1 | < 100
Nc1c(C(=O)c2ccc(F)cc2)ccc(=O)n1-c1ccc(OCCCN[C@@H](Cc2ccccc2)C(=O)OC2CCCC2)cc1 | < 100
Cc1cc(C(=O)c2ccc(=O)n(-c3c(F)cc(OCCCN[C@@H](CC(C)C)C(=O)O)cc3F)c2N)ccc1F | < 100
Cc1cc(C(=O)c2ccc(=O)n(-c3c(F)cc(OCCCN[C@@H](Cc4ccccc4)C(=O)O)cc3F)c2N)ccc1F | < 100
Nc1c(C(=O)c2ccc(F)cc2F)ccc(=O)n1-c1ccc(OCCCN[C@H](C(=O)OC2CCCC2)c2ccccc2)cc1 | < 100
CC(C)C[C@@H](NCCCOc1cc(F)c(-n2c(N)c(C(=O)c3ccc(F)cc3F)ccc2=O)c(F)c1)C(=O)O | < 100
CC(C)C[C@H](NCCCOc1cc(F)c(-n2c(N)c(C(=O)c3ccc(F)cc3F)ccc2=O)c(F)c1)C(=O)O | < 100
CC(C)C[C@H](NCCCOc1ccc(-n2c(N)c(C(=O)c3ccc(F)cc3F)ccc2=O)cc1)C(=O)O | < 100
Nc1c(C(=O)c2ccc(F)cc2)ccc(=O)n1-c1c(F)cc(OC2CCC(N[C@@H](Cc3ccccc3)C(=O)O)CC2)cc1F (stereo partly drawn) | < 100

Next, values leading:

IC50 [nM] | SMILES
< 100 | Nc1c(C(=O)c2ccc(F)cc2F)ccc(=O)n1-c1ccc(CN[C@H](C(=O)O)c2ccccc2)cc1
< 100 | Nc1c(C(=O)c2ccc(F)cc2)ccc(=O)n1-c1c(F)cc(OC2CCC(N[C@H](C(=O)OC3CCCC3)c3ccccc3)CC2)cc1F (stereo partly drawn)
< 100 | CC(C)C[C@@H](NCCCOc1cc(F)c(-n2c(N)c(C(=O)c3ccc(F)cc3F)ccc2=O)c(F)c1)C(=O)OC(C)(C)C
< 100 | CC(C)C[C@H](NCCCCCOc1cc(F)c(-n2c(N)c(C(=O)c3ccc(F)cc3)ccc2=O)c(F)c1)C(=O)O
< 100 | Nc1c(C(=O)c2ccc(F)cc2F)ccc(=O)n1-c1c(F)cc(OCCCN[C@H](C(=O)OC2CCCC2)c2ccccc2)cc1F
< 100 | CC(C)(C)OC(=O)[C@@H](NCCCOc1cc(F)c(-n2c(N)c(C(=O)c3ccc(F)cc3F)ccc2=O)c(F)c1)c1ccccc1
< 100 | CC(C)C[C@@H](NCCCOc1cc(F)c(-n2c(N)c(C(=O)c3ccc(F)cc3F)ccc2=O)c(F)c1)C(=O)OC1CCCC1
< 100 | Nc1c(C(=O)c2ccc(F)cc2)ccc(=O)n1-c1c(F)cc(OC2CCC(N[C@H](C(=O)O)c3ccccc3)CC2)cc1F (stereo partly drawn)
< 100 | Nc1c(C(=O)c2ccc(F)cc2F)ccc(=O)n1-c1ccc(CN[C@@H](Cc2ccccc2)C(=O)OC2CCCC2)cc1
< 100 | O=C(c1ccc(F)cc1)c1ccc(=O)[nH]c1Nc1c(F)cc(CN[C@@H](Cc2ccccc2)C(=O)OC2CCCC2)cc1F
< 100 | Cc1cc(C(=O)c2ccc(=O)n(-c3c(F)cc(OCCCN[C@@H](Cc4ccccc4)C(=O)OC4CCCC4)cc3F)c2N)ccc1F
< 100 | CC(C)C[C@H](NCCCOc1cc(F)c(-n2c(N)c(C(=O)c3ccc(F)cc3F)ccc2=O)c(F)c1)C(=O)OCCN1CCOCC1
< 100 | CC(C)C[C@H](NCc1ccc(-n2c(N)c(C(=O)c3ccc(F)cc3F)ccc2=O)cc1)C(=O)O
< 100 | Nc1c(C(=O)c2ccc(F)cc2)ccc(=O)n1-c1ccc(OCCCN[C@@H](Cc2ccccc2)C(=O)O)cc1
< 100 | Cc1cc(C(=O)c2ccc(=O)n(-c3c(F)cc(OCCCN[C@@H](CC(C)C)C(=O)OC4CCCC4)cc3F)c2N)ccc1F
< 100 | Nc1c(C(=O)c2ccc(F)cc2F)ccc(=O)n1-c1ccc(CN[C@H](C(=O)OC2CCCC2)c2ccccc2)cc1

IC50 [nM] | SMILES
< 100 | Nc1c(C(=O)c2ccc(F)cc2F)ccc(=O)n1-c1c(F)cc(OCCCN[C@H](C(=O)O)c2ccccc2)cc1F
< 100 | Nc1c(C(=O)c2ccc(F)cc2F)ccc(=O)n1-c1ccc(OCCCN[C@@H](Cc2ccccc2)C(=O)OC2CCCC2)cc1
< 100 | CC(C)C[C@H](NCCCOc1ccc(-n2c(N)c(C(=O)c3ccc(F)cc3)ccc2=O)cc1)C(=O)O
< 100 | Nc1c(C(=O)c2ccc(F)cc2F)ccc(=O)n1-c1c(F)cc(OCCCN[C@H](C(=O)OC2Cc3ccccc3C2)c2ccccc2)cc1F
< 100 | Nc1c(C(=O)c2ccc(F)cc2F)ccc(=O)n1-c1c(F)cc(OCCCN[C@@H](C(=O)O)c2ccccc2)cc1F
< 100 | Cc1cc(C(=O)c2ccc(=O)n(-c3ccc(OCCCN[C@H](C(=O)OC4CCCC4)c4ccccc4)cc3)c2N)ccc1F
< 100 | Nc1c(C(=O)c2ccc(F)cc2F)ccc(=O)n1-c1c(F)cc(OCCCN[C@@H](C(=O)OC2CCCC2)c2ccccc2)cc1F
< 100 | CC(C)C[C@H](NCCCOc1cc(F)c(-n2c(N)c(C(=O)c3ccc(F)cc3F)ccc2=O)c(F)c1)C(=O)OC(C)(C)C
< 100 | CC(C)(C)OC(=O)[C@H](Cc1ccccc1)NCCCOc1cc(F)c(-n2c(N)c(C(=O)c3ccc(F)cc3F)ccc2=O)c(F)c1
< 100 | Nc1c(C(=O)c2ccc(F)cc2)ccc(=O)n1-c1ccc(CCN[C@H](C(=O)O)c2ccccc2)cc1
< 100 | Cc1cc(C(=O)c2ccc(=O)n(-c3c(F)cc(OCCCN[C@H](C(=O)OC4CCCC4)c4ccccc4)cc3F)c2N)ccc1F
< 100 | Nc1c(C(=O)c2ccc(F)cc2F)ccc(=O)n1-c1c(F)cc(OCCCN[C@@H](Cc2ccccc2)C(=O)O)cc1F
< 100 | CC(C)(C)OC(=O)[C@@H](NCCCOc1cc(F)c(-n2c(N)c(C(=O)c3ccc(F)cc3F)ccc2=O)c(F)c1)C1CCCCC1
< 100 | NCC[C@H](NCCCOc1cc(F)c(-n2c(N)c(C(=O)c3ccc(F)cc3F)ccc2=O)c(F)c1)C(=O)OC1CCCC1
< 100 | Nc1c(C(=O)c2ccc(F)cc2)ccc(=O)n1-c1ccc(OCCCN[C@H](C(=O)O)c2ccccc2)cc1
